Measured values taken from US20250281457A1, “TREATMENT OR PREVENTION OF DENGUE VIRAL INFECTION” (Janssen Pharmaceuticals, Inc., priority 2022, published 2025).
Where two headings read alike, the source gives them in different places.

Experiment: Effect of food on plasma pharmacokinetics after single oral dose of SF2a/b (Example 2)
Type: in vivo, human
Conditions: for AUC(0-t) / AUC(0-inf) / Cmax / half-life / Tmax: both sexes, human, plasma, oral; for Tmax: read-out: tmax, Median
Experimental: The effect of food on the pharmacokinetics (PK) of Compound (a) was assessed in healthy participants after a single oral dose of SF2a/b, described in Example 1, administered at different dose levels in a randomized single dose, 2-period crossover study. The effect of food on the PK of Compound (a) was determined at 3 different dose levels (50 mg, 200 mg, and 800 mg) for a standardized breakfast; at one dose level (800 mg) for a high-fat, high-calorie breakfast; at two dose levels (200 mg and 800 mg) for a low-fat, low-calorie breakfast, as well as for a low-fat, high-calorie breakfast. 124 healthy adult participants (male and female, 18 to 55 years of age) were enrolled in this study. The volunteers were divided in six panels, which were organized as follows: • Panel […]: • Treatment D: A single 800-mg dose (4×200-mg tablets) of Compound (a) SF2b in fasted conditions. • Treatment E: A single 800-mg dose (4×200-mg tablets) of Compound (a) SF2b in fed conditions (standardized breakfast). • Treatments D and E (treatment sequence group 1 [n=8]: DE; treatment sequence group 2 [n=8]: ED). Panel 4, n=14: • Treatment F: A single 200-mg dose (1×200-mg tablet) of Compound (a) SF2b in fasted conditions. • Treatment G: A single 200-mg dose (1×200-mg tablet) of Compound (a) SF2b, in fed conditions (standardized breakfast). • Treatments F and G (treatment sequence group 1 [n=7]: FG; treatment sequence group 2 [n=7]: GF). Panel […]: • Treatment H: A single 50-mg dose (1×50-mg tablet) of Compound (a) SF2a in fasted conditions. • Treatment I: A single 50-mg dose (1×50-mg tablet) of Compound (a) SF2a in fed conditions (standardized breakfast). • Treatments H and I (treatment sequence group 1 [n=7]: HI; treatment sequence group 2 [n=7]: IH). Panel 6 (n=16): • Treatment J: single 800-mg dose (4×200-mg tablets) of Compound (a) administered as SF2b in fasted conditions. • Treatment K: single 800-mg dose (4×200-mg tablets) of Compound (a) administered as SF2b in fed conditions (high-fat, high-calorie breakfast). • Treatments J and K (treatment sequence group 1 [n=8]: JK; treatment sequence group 2 [n=8]: KJ). Panel 7 (n=32): • Treatment L: single 800-mg dose (4×200-mg tablets) of Compound (a) administered as SF2b in fed conditions (low-fat, low-calorie breakfast). • Treatment M: single 800-mg dose (4×200-mg tablets) of Compound (a) administered as SF2b in fed conditions (low-fat, high-calorie breakfast). • Treatment L (n=16) or Treatment M (n=16). Panel 8 (n=32): • Treatment N: single 200-mg dose (1×200-mg tablet) of Compound (a) administered as SF2b in fed conditions (low-fat, low-calorie breakfast). • Treatment O: single 200-mg dose (1×200-mg tablet) of Compound (a) administered as SF2b in fed conditions (low-fat, high-calorie breakfast). • Treatment N (n=16) or Treatment O (n=16). Tablets were administered orally, together with approximately 240 mL of non-carbonated water, in fasted or fed conditions. […] On day 1 of all treatments in each panel, the participants had fasted overnight for at least 10 hours before study drug intake. Intake of water was not allowed from 2 hours before and until 2 hours after study drug intake, except for the water used for study drug intake and breakfast. In case of intake in fed conditions, study drug was administered within 10 minutes after completing a standardized breakfast (Treatments E, G, and I), or a high-fat, high-calorie breakfast (Treatment K), a low-fat, low-calorie breakfast (Treatments L and N), or a low-fat, high-calorie breakfast (Treatments M and O). For treatments E, G, and I a standardized breakfast was served, consisting of (or its equivalent) 4 slices of bread, 2 slices of ham or cheese, butter, jelly, and 1 or 2 cups (up to 355 mL) of decaffeinated coffee or tea with milk and/or sugar, if desired (containing approximately: fat: 21 g, carbohydrates: 67 g, proteins: 19 g; total calories: 533 kcal). For treatment K in a high-fat, high-calorie breakfast was served. […]

[1] = 50 mg SF2a, standardized breakfast vs fasted
[2] = 200 mg SF2b, low-fat, high-calorie vs standardized breakfast
[3] = 200 mg SF2b, low-fat, low-calorie vs standardized breakfast
[4] = 200 mg SF2b, standardized breakfast vs fasted
[5] = 800 mg SF2b, high-fat, high-calorie breakfast vs fasted
[6] = 800 mg SF2b, low-fat, high-calorie vs standardized breakfast
[7] = 800 mg SF2b, low-fat, low-calorie vs standardized breakfast
[8] = 800 mg SF2b, standardized breakfast vs fasted

AUClast, Geometric Mean Ratio Treatment I vs Treatment H [1]: 120.38% | AUC∞, Geometric Mean Ratio Treatment I vs Treatment H [1]: 121.24% | Cmax, Geometric Mean Ratio Treatment I vs Treatment H [1]: 132.83% | AUClast, Geometric Mean Ratio Treatment O vs Treatment G [2]: 66.47% | AUC∞, Geometric Mean Ratio Treatment O vs Treatment G [2]: 67.23% | Cmax, Geometric Mean Ratio Treatment O vs Treatment G [2]: 72.81% | AUClast, Geometric Mean Ratio Treatment N vs Treatment G [3]: 73.28% | AUC∞, Geometric Mean Ratio Treatment N vs Treatment G [3]: 73.61% | Cmax, Geometric Mean Ratio Treatment N vs Treatment G [3]: 72.54% | AUClast, Geometric Mean Ratio Treatment G vs Treatment F [4]: 168.45% | AUC∞, Geometric Mean Ratio Treatment G vs Treatment F [4]: 172.00% | Cmax, Geometric Mean Ratio Treatment G vs Treatment F [4]: 176.07% | AUClast, Geometric Mean Ratio Treatment K vs Treatment J [5]: 391.52% | AUC∞, Geometric Mean Ratio Treatment K vs Treatment J [5]: 384.08% | Cmax, Geometric Mean Ratio Treatment K vs Treatment J [5]: 409.01% | AUClast, Geometric Mean Ratio Treatment M vs Treatment E [6]: 65.27% | AUC∞, Geometric Mean Ratio Treatment M vs Treatment E [6]: 69.35% | Cmax, Geometric Mean Ratio Treatment M vs Treatment E [6]: 60.73% | AUClast, Geometric Mean Ratio Treatment L vs Treatment E [7]: 60.37% | AUC∞, Geometric Mean Ratio Treatment L vs Treatment E [7]: 64.71% | Cmax, Geometric Mean Ratio Treatment L vs Treatment E [7]: 60.56% | AUClast, Geometric Mean Ratio Treatment E vs Treatment D [8]: 241.23% | AUC∞, Geometric Mean Ratio Treatment E vs Treatment D [8]: 238.11% | Cmax, Geometric Mean Ratio Treatment E vs Treatment D [8]: 277.77% | relative bioavailability for AUClast, standardized breakfast compared to fasted (SF2a/b, 50 mg dose): 124% | relative bioavailability for Cmax, standardized breakfast compared to fasted (SF2a/b, 50 mg dose): 133% | relative bioavailability for AUClast, standardized breakfast compared to fasted (SF2a/b, 800 mg dose): 243% | relative bioavailability for Cmax, standardized breakfast compared to fasted (SF2a/b, 800 mg dose): 278% | exposure, high-fat, high-calorie breakfast compared to fasted conditions (SF2a/b, single dose 800 mg): approximately 4 times higher | tlast, Median (Treatment D: single 800 mg (SF2b), fasted): 840.00 h | tlast, Median (Treatment E: single 800 mg (SF2b), fed, standardized breakfast): 840.00 h | tlast, Median (Treatment F: single 200 mg (SF2b), fasted): 840.00 h | tlast, Median (Treatment G: single 200 mg (SF2b), fed, standardized breakfast): 840.00 h | tlast, Median (Treatment H: single 50 mg (SF2a), fasted): 840.00 h | tlast, Median (Treatment I: single 50 mg (SF2a), fed, standardized breakfast): 840.00 h | AUC(0-t) (50 mg, 50 mg SF2a, fasted, linear mixed effects model (Table 5C), read-out: AUClast, Geometric Mean Treatment H): 17900 ng·h/mL | AUC(0-inf) (50 mg, 50 mg SF2a, fasted, linear mixed effects model (Table 5C), read-out: AUC∞, Geometric Mean Treatment H): 18700 ng·h/mL | Cmax (50 mg, 50 mg SF2a, fasted, linear mixed effects model (Table 5C), read-out: Cmax, Geometric Mean Treatment H): 193 ng/mL | AUC(0-t) (50 mg, 50 mg SF2a, standardized breakfast, linear mixed effects model (Table 5C), read-out: AUClast, Geometric Mean Treatment I): 21600 ng·h/mL | AUC(0-inf) (50 mg, 50 mg SF2a, standardized breakfast, linear mixed effects model (Table 5C), read-out: AUC∞, Geometric Mean Treatment I): 22700 ng·h/mL | Cmax (50 mg, 50 mg SF2a, standardized breakfast, linear mixed effects model (Table 5C), read-out: Cmax, Geometric Mean Treatment I): 257 ng/mL | AUC(0-t) (50 mg, Treatment H: single 50 mg (SF2a), fasted, read-out: AUClast, Geo. Mean): 18000 ng·h/mL | AUC(0-t) (50 mg, Treatment H: single 50 mg (SF2a), fasted, read-out: AUClast, Mean): 19900 ng·h/mL | AUC(0-t) (50 mg, Treatment H: single 50 mg (SF2a), fasted, read-out: AUClast, Median): 18500 ng·h/mL | AUC(0-inf) (50 mg, Treatment H: single 50 mg (SF2a), fasted, read-out: AUC∞, Geo. Mean): 18800 ng·h/mL | AUC(0-inf) (50 mg, Treatment H: single 50 mg (SF2a), fasted, read-out: AUC∞, Mean): 21000 ng·h/mL | AUC(0-inf) (50 mg, Treatment H: single 50 mg (SF2a), fasted, read-out: AUC∞, Median): 18800 ng·h/mL | Cmax (50 mg, Treatment H: single 50 mg (SF2a), fasted, read-out: Cmax, Geo. Mean): 195 ng/mL | Cmax (50 mg, Treatment H: single 50 mg (SF2a), fasted, read-out: Cmax, Mean): 214 ng/mL | Cmax (50 mg, Treatment H: single 50 mg (SF2a), fasted, read-out: Cmax, Median): 208 ng/mL | half-life (50 mg, Treatment H: single 50 mg (SF2a), fasted, read-out: t1/2, term, Geo. Mean (converted)): 167 h | half-life (50 mg, Treatment H: single 50 mg (SF2a), fasted, read-out: t1/2, term, Mean (converted)): 176 h | half-life (50 mg, Treatment H: single 50 mg (SF2a), fasted, read-out: t1/2, term, Median (converted)): 162 h | Tmax (50 mg, Treatment H: single 50 mg (SF2a), fasted): 7 h | AUC(0-t) (50 mg, Treatment I: single 50 mg (SF2a), fed, standardized breakfast, read-out: AUClast, Geo. Mean): 21100 ng·h/mL | AUC(0-t) (50 mg, Treatment I: single 50 mg (SF2a), fed, standardized breakfast, read-out: AUClast, Mean): 22900 ng·h/mL | AUC(0-t) (50 mg, Treatment I: single 50 mg (SF2a), fed, standardized breakfast, read-out: AUClast, Median): 20400 ng·h/mL | AUC(0-inf) (50 mg, Treatment I: single 50 mg (SF2a), fed, standardized breakfast, read-out: AUC∞, Geo. Mean): 22100 ng·h/mL | AUC(0-inf) (50 mg, Treatment I: single 50 mg (SF2a), fed, standardized breakfast, read-out: AUC∞, Mean): 24600 ng·h/mL | AUC(0-inf) (50 mg, Treatment I: single 50 mg (SF2a), fed, standardized breakfast, read-out: AUC∞, Median): 20800 ng·h/mL | Cmax (50 mg, Treatment I: single 50 mg (SF2a), fed, standardized breakfast, read-out: Cmax, Geo. Mean): 257 ng/mL | Cmax (50 mg, Treatment I: single 50 mg (SF2a), fed, standardized breakfast, read-out: Cmax, Mean): 288 ng/mL | Cmax (50 mg, Treatment I: single 50 mg (SF2a), fed, standardized breakfast, read-out: Cmax, Median): 267 ng/mL | half-life (50 mg, Treatment I: single 50 mg (SF2a), fed, standardized breakfast, read-out: t1/2, term, Geo. Mean (converted)): 174 h | half-life (50 mg, Treatment I: single 50 mg (SF2a), fed, standardized breakfast, read-out: t1/2, term, Mean (converted)): 185 h | half-life (50 mg, Treatment I: single 50 mg (SF2a), fed, standardized breakfast, read-out: t1/2, term, Median (converted)): 159 h | Tmax (50 mg, Treatment I: single 50 mg (SF2a), fed, standardized breakfast): 6.5 h | AUC(0-t) (200 mg, 200 mg SF2b, fasted, linear mixed effects model (Table 5B), read-out: AUClast, Geometric Mean Treatment F): 60500 ng·h/mL | AUC(0-inf) (200 mg, 200 mg SF2b, fasted, linear mixed effects model (Table 5B), read-out: AUC∞, Geometric Mean Treatment F): 60500 ng·h/mL | Cmax (200 mg, 200 mg SF2b, fasted, linear mixed effects model (Table 5B), read-out: Cmax, Geometric Mean Treatment F): 559 ng/mL | AUC(0-t) (200 mg, 200 mg SF2b, fed, low-fat, high-calorie breakfast, read-out: AUClast, Geometric LS Means Treatment O): 65200 ng·h/mL | AUC(0-inf) (200 mg, 200 mg SF2b, fed, low-fat, high-calorie breakfast, read-out: AUC∞, Geometric LS Means Treatment O): 69300 ng·h/mL | Cmax (200 mg, 200 mg SF2b, fed, low-fat, high-calorie breakfast, read-out: Cmax, Geometric LS Means Treatment O): 700 ng/mL | AUC(0-t) (200 mg, 200 mg SF2b, fed, low-fat, low-calorie breakfast, read-out: AUClast, Geometric LS Means Treatment N): 71900 ng·h/mL | AUC(0-inf) (200 mg, 200 mg SF2b, fed, low-fat, low-calorie breakfast, read-out: AUC∞, Geometric LS Means Treatment N): 75800 ng·h/mL | Cmax (200 mg, 200 mg SF2b, fed, low-fat, low-calorie breakfast, read-out: Cmax, Geometric LS Means Treatment N): 697 ng/mL | AUC(0-t) (200 mg, 200 mg SF2b, fed, standardized breakfast (Tables 5E, 5G), read-out: AUClast, Geometric LS Means Treatment G): 98200 ng·h/mL
Compound: COc1cc(NC(C(=O)c2c[nH]c3ccc(OC(F)(F)F)cc23)c2ccc(Cl)cc2OC)cc(S(C)(=O)=O)c1 (centres unmarked) [Compound (a)]
